target: T1, Human glycogen phosphorylase a (Homo sapiens, UniProt P06737); experiment: Glycogen phosphorylase a activity test; format: biochemical; conditions: 10 μM concentration of the test substance; GPa measured in the reverse direction, in vitro
T1 sequence (P06737 1-847): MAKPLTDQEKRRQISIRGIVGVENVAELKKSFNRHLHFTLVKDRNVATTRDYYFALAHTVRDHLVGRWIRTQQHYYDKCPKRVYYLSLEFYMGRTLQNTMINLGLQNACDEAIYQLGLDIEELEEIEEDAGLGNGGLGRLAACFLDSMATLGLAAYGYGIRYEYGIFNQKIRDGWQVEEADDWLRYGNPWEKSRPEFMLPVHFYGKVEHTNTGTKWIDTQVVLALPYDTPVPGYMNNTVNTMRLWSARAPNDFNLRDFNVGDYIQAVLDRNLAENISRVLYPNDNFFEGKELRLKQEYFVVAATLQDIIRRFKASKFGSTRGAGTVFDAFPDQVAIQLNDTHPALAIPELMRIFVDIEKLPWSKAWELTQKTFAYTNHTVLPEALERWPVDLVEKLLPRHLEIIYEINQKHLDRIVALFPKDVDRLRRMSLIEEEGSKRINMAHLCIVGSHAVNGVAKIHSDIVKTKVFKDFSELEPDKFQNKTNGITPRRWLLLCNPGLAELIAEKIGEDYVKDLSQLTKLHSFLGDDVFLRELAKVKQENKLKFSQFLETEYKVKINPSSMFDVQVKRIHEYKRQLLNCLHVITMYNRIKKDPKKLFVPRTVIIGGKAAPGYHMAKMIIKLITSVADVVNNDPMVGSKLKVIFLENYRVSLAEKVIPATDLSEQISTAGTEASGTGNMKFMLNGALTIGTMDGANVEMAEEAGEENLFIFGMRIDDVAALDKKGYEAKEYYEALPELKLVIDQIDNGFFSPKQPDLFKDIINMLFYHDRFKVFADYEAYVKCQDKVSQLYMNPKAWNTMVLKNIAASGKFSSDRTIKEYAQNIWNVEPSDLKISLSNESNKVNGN
Experimental: Glycogen Phosphorylase a Activity Test
The effect of compounds on the activity of the active form of glycogen phosphorylase (GPa) was measured in the reverse direction by monitoring the synthesis of glycogen from glucose 1-phosphate by determining the release of inorganic phosphate. All the reactions were carried out as duplicate determinations in 96-well microtiter plates (Half Area Plates, Costar No. 3696), with the change in absorption due to the formation of the reaction product being measured, at the wavelength specified below, in a Multiscan Ascent Elisa Reader (Lab Systems, Finland). In order to measure the enzymic activity of GPa in the reverse direction, the conversion of glucose 1-phosphate into glycogen and inorganic phosphate was measured in accordance with the general method of Engers et al. (Engers HD, Shechosky S, Madsen NB, Can J Biochem 1970 July;48(7): 746–754) but with the following modifications: Human glycogen phosphorylase a (for example containing 0.76 mg of protein/ml (Aventis Pharma Deutschland GmbH), dissolved in buffer solution E (25 mM β-glycerophosphate, pH 7.0, 1 mM EDTA and 1 mM dithiothreitol), was diluted with buffer T (50 mM Hepes, pH 7.0, 100 mM KCl, 2.5 mM EDTA, 2.5 mM MgCl2.6H2O), and addition of 5 mg of glycogen/ml, to a concentration of 10 μg of protein/ml. Test substances were prepared as a 10 mM solution in DMSO and diluted down to 50 μM with buffer solution T. 10 μl of 37.5 mM glucose, dissolved in buffer solution T and 5 mg/ml of glycogen, and also 10 μl of a solution of human glycogen phosphorylase a (10 μg of protein/ml) and 20 μl of glucose 1-phosphate, 2.5 mM, were added to […] of the solution. The basal value of the activity of the glycogen phosphorylase a in the absence of test substance was determined by adding 10 μl of buffer solution T (0.1% DMSO). The mixture was incubated at room temperature for 40 minutes and the inorganic phosphate which was released was measured using the general method of Drueckes et al. (Drueckes P, Schinzel R, Palm D, Anal Biochem […] Sep. 1;230(10):173–177) but with the following modifications: 50 μl of a stop solution of 7.3 mM ammonium molybdate, 10.9 mM zinc acetate, 3.6% ascorbic acid, 0.9% SDS are added to 50 μl of the enzyme mixture. After 60 minutes of incubation at 45° C., the absorption was measured at 820 nm. In order to determine the background absorption, the stop solution was added immediately after adding the glucose 1-phosphate solution in a separate assay. This test was carried out using a 10 μM concentration of the test substance in order to determine the respective inhibition of glycogen phosphorylase a by the test substance in vitro.

Q: How did the inhibition at 10 µM turn out when `COc1ccc(C(=O)O)cc1NC(=O)NC(=O)c1ccc(Cl)cc1Cl` [Example 1, 3-[3-(2,4-Dichlorobenzoyl)ureido]-4-methoxybenzoic acid] was run?
A: 95%

Q: How did the “% inhibition at 10 μM” value turn out when `COc1ccc(C(=O)O)cc1NC(=O)NC(=O)c1ccccc1Cl` [Example 2] was run?
A: 75%

Q: Which “% inhibition at 10 μM” value does the source give for `O=C(NC(=O)c1ccc(Cl)cc1Cl)Nc1cc(C(=O)O)ccc1O` [Example 3] here?
A: 74%

Q: With `O=C(NC(=O)c1ccc(Cl)cc1Cl)Nc1cc(C(=O)O)ccc1F` [Example 4] as the molecule, how does the “% inhibition at 10 μM” value read?
A: 75%

Q: Which “% inhibition at 10 μM” value does the source give for `O=C(NC(=O)c1cc(Cl)ccc1Cl)Nc1cc(C(=O)O)ccc1Cl` [Example 6] here?
A: 57%

Q: `NC(CO)(CO)CO.O=C(NC(=O)c1cc(Cl)ccc1Cl)Nc1cc(C(=O)O)ccc1Cl` [Example 7] was tested. Which “% inhibition at 10 μM” value did it give?
A: 54%

Q: How did the “% inhibition at 10 μM” value turn out when `COc1ccc(C(=O)O)cc1NC(=O)NC(=O)c1ccccc1C` [Example 8] was run?
A: 77%

Q: With `COc1ccc(C(=O)O)cc1NC(=O)NC(=O)c1cc(Cl)ccc1Cl` [Example 9] as the molecule, how does the “% inhibition at 10 μM” value read?
A: 81%

Q: With `COc1ccc(C(=O)O)cc1NC(=O)NC(=O)c1ccc(Cl)c(Cl)c1` [Example 10] as the molecule, how does the “% inhibition at 10 μM” value read?
A: 41%

Q: `O=C(NC(=O)c1ccccc1Cl)Nc1cc(C(=O)O)ccc1Cl` [Example 11] was tested. Which “% inhibition at 10 μM” value did it give?
A: 49%

Q: With `O=C(NC(=O)c1ccc(Cl)cc1Cl)Nc1cc(C(=O)O)ccc1Cl` [Example 12] as the molecule, how does the “% inhibition at 10 μM” value read?
A: 83%

Q: How did the “% inhibition at 10 μM” value turn out when `CCOc1ccc(C(=O)O)cc1NC(=O)NC(=O)c1ccc(Cl)cc1Cl` [Example 13] was run?
A: 86%

Q: `COc1ccc(C(=O)O)cc1NC(=O)NC(=O)c1ccc(C)cc1C` [Example 14] was tested. Which “% inhibition at 10 μM” value did it give?
A: 57%

Q: With `O=C(NC(=O)c1ccc(Cl)cc1F)Nc1cc(C(=O)O)ccc1Cl` [Example 15] as the molecule, how does the “% inhibition at 10 μM” value read?
A: 61%

Q: With `COc1ccc(C(=O)O)cc1NC(=O)NC(=O)c1ccc(Cl)cc1F` [Example 16] as the molecule, how does the “% inhibition at 10 μM” value read?
A: 48%

Q: How did the “% inhibition at 10 μM” value turn out when `O=C(NC(=O)c1ccc(F)cc1F)Nc1cc(C(=O)O)ccc1Cl` [Example 17] was run?
A: 52%

Q: How did the “% inhibition at 10 μM” value turn out when `COc1ccc(C(=O)O)cc1NC(=O)NC(=O)c1ccc(F)cc1F` [Example 18] was run?
A: 69%

Q: Which “% inhibition at 10 μM” value does the source give for `O=C(NC(=O)c1ccc(Cl)cc1Cl)Nc1cc(C(=O)O)ccc1OCCO` [Example 19] here?
A: 90%

Q: With `CCCOc1ccc(C(=O)O)cc1NC(=O)NC(=O)c1ccc(Cl)cc1Cl` [Example 20] as the molecule, how does the “% inhibition at 10 μM” value read?
A: 62%

Q: How did the “% inhibition at 10 μM” value turn out when `CCCCOc1ccc(C(=O)O)cc1NC(=O)NC(=O)c1ccc(Cl)cc1Cl` [Example 21] was run?
A: 64%

Q: With `COCCOc1ccc(C(=O)O)cc1NC(=O)NC(=O)c1ccc(Cl)cc1Cl` [Example 22] as the molecule, how does the “% inhibition at 10 μM” value read?
A: 72%

Q: Which “% inhibition at 10 μM” value does the source give for `O=C(NC(=O)c1ccc(Cl)cc1Cl)Nc1cc(C(=O)O)ccc1Oc1ccccc1` [Example 23] here?
A: 55%

Q: Which “% inhibition at 10 μM” value does the source give for `NC(CO)(CO)CO.O=C(NC(=O)c1ccc(Cl)cc1Cl)Nc1cc(C(=O)O)ccc1Oc1ccccc1` [Example 24] here?
A: 65%

Q: For `O=C(NC(=O)c1ccc(F)cc1Cl)Nc1cc(C(=O)O)ccc1C(F)(F)F` [Example 25], which “% inhibition at 10 μM” value is on record?
A: 49%

Q: Which “% inhibition at 10 μM” value does the source give for `O=C(NC(=O)c1ccc(Cl)cc1Cl)Nc1cc(C(=O)O)ccc1C(F)(F)F` [Example 26] here?
A: 44%

— US7078404B2, “Acyl-3-carboxyphenylurea derivatives, processes for preparing them and their use” (Sanofi-Aventis Deutschland GmbH, priority 2002, dated 2006)
